According to patent publication US11959104B2, “Methods of differentiating stem cell-derived ectodermal lineage precursors” (MEMORIAL SLOAN-KETTERING CANCER CENTER, priority 2016, dated 2024):
Read-outs that look alike come from different tables or passages of the source.

Tests used:
hPSCs = experiment: Toxicity of KSR-protocol small molecule concentrations in E6 differentiation; assay type: cell-based, human; settings: original KSR-protocol concentration used in E6
Excerpt: To transition these protocols into the more defined E6 media, we adapted hPSCs in E8 for multiple passages and simply replaced the KSR-based medium with an E6 based differentiation while maintaining factors and concentrations as described previously to trigger the 4 major ectodermal lineages (FIG. 9A). […] After determining an optimal non-toxic concentration for each of the small molecules we observed that NE formation under E6 conditions was equivalent to that obtained with KSR-based conditions. […] We compared the efficiency of generating PAX6 positive cells using either no small molecules, using dSMADi or using the single TGFβ inhibitor SB431542 (SB). We found robust PAX6 expression in the absence of dSMADi (˜40% of total cells on day 12 post induction). However, the percentage of cells expressing PAX6 was further improved upon addition of SB or dSMADi to nearly 90% and 80%, respectively (FIGS. 1E and 9B).

SIX1 placode cells = experiment: Trigeminal placode induction by Wnt activation pulse; assay type: cell-based, human; settings: additional pulse after the BMP pulse
Method: (§1) All differentiations starting from E8 were dissociated into single cells using EDTA and replated at high density in E8 with the ROCK inhibitor (Tocris). Cells were typically seeded at a density of 200,000 cells/cm^2 on Matrigel coated dishes. Switching from E8 to E6 triggered differentiations (i.e. d0). Neuroectoderm (NE) formation was generated by culturing the cells in E6 with […] and 500 nM LDN until d12. Neural Crest (NC) was first treated with […], 600 nM CHIR and 1 ng/ml BMP4 from d0-d2. At d2, cells were maintained in […] with 1.5 uM CHIR until d12. Lens placode was first treated with […] and 5 ng/ml BMP4 from d0-d2. At d2, cells were maintained in […] with 100 ng/ml FGF2 until d12. Trigeminal placode was first treated with […] and 5 ng/ml BMP4 from d0-d2. At d2, CHIR was added to the SB and BMP4 until d4. Finally, non-neural ectoderm (NNE) was treated with 10 nM SB, 10 nM SU5402 and 20 ng/ml BMP4 until d12.

rodent GSK3β homologs = settings: cited from earlier work
[1] = tested on: hPSC-derived cranial placode; experiment: Pituitary placode induction, day 15 (qRT-PCR, immunofluorescence); assay type: cell-based; settings: for induction of anterior pituitary genes / lineage markers: from day 4, day 15 analysis
Method: For pituitary differentiation cells were plated at 250 000 cells/cm^2 on VTN-N coated dishes (differentiation works best in 24 well plates) in E8+10 μM Y-27632. After 24 h (day 0) medium was changed to E6 supplemented with 10 μM SB431542 and 5 ng/ml BMP4 (R&D Systems). Medium was changed every day. On day 3 BMP4 was removed from the medium and cells were cultured for 1 day in E6+10 μM SB431542. For the standard differentiation conditions, on day 4 E6 was supplemented with 10 μM SB431542, 200 ng/ml SHH (R&D Systems, C25II), 100 ng/ml FGF8b (R&D Systems) and 50 ng/ml FGF10 (Peprotech Inc.). For some experiments SHH was replaced by 1 μM purmorphamine (Stemgent) or 1 μM SAG (Stemcell Technologies). From now on medium volume was doubled and cells were feed every other day until day 15. On day 15 of differentiation SIX1 H2B::GFP^+ cells were sorted using a BDFACS Aria III cell sorter. Purified cells were then plated as droplets (50 000 cells/10 μl drop) in E6 supplemented with 10 Y-27632, 200 ng/ml SHH, 100 ng/ml FGF8b and 50 ng/ml FGF10 on polyornithine/laminin/fibronectin-coated plates. After 24 h medium was changed to E6 containing SHH, FGF8 and FGF10 until day 30. Medium was changed every other day. For some experiments pituitary induction was started slightly later (day 6) or cells were differentiated in medium conditioned by hypothalamic neuroectoderm from either day 4 or day 6 on. For the co-culture experiment SIX1 H2B::GFP positive cells were sorted on day 6 and 50 000 cells/cm^2 were plated directly on hypothalamic neuroectodermal cells in E6 only supplemented with 10 SB431542.
Total RNA was extracted from at least 3 independent experiments using the TRIzol (Fisher Scientific) reagent in combination with Phase-lock tubes (5Prime) according to the manufactures protocol. 1 μg of total RNA was reverse transcribed into cDNA using iScript (BioRad). For quantitative RT PCR we used the SSoFast EvaGreen Mix (BioRad) in combination with QuantiTect primer assays (Qiagen) on a BioRad CFX96 Thermal Cycler. All reactions were run according to the manufacturer's protocol. Results are calculated using the ΔΔCt method (Livak and Schmittgen, 2001).
After washing the cells once with PBS, cells were fixed with 4% (v/v) paraformaldehyde for 20 min, washed twice with PBS, permeabilized using 0.1% (v/v) Triton X-100 in PBS, Cells were blocked with 10% (v/v) FCS in PBS for 1-5 h at room temperature. Cells were incubated with primary antibodies diluted in 2% FCS (v/v) in PBS at 4° C. overnight. A list of the primary antibodies used in this study is provided as FIG. 28. […] After and additional 2 washing steps, fluorescence images of the cells were taken using an Olympus IX71 inverted microscope equipped with a Hamamatsu ORCA CCD camera.

[2] = tested on: human pluripotent stem cells; experiment: Neuroectoderm induction in E6 media, PAX6 positive cells (PAX6::H2B-GFP reporter); assay type: cell-based; settings: day 12 post induction, without small molecules ~40%
Method: as §1, with “H9 ESCs (WA09) and modified reporter lines (passage 40-70) were cultured in the Knockout Serum Replacement (KSR) (Life Technologies) based media (DMEM-F12, 20% KSR, L-glutamate and 10 ng/ml FGF2) on mouse embryonic fibroblast feeders. KSR hPSCs were directly transferred to the E8 media (Life Technologies) coated with Vitronectin and adapted for 4-5 passages before differentiations were performed. KSR based differentiations were performed as previously described, neuroectoderm and neural crest (Mica et al., 2013), and placode and non-neural ectoderm ([…] et al., 2013). All” for “All”, “At d2, CHIR was added to the SB and BMP4 until d4. Finally, non-neural ectoderm (NNE) was treated with 10 nM SB, 10 nM SU5402 and 20 ng/ml BMP4 until d12.” left out

hPSC [3] = experiment: Cranial placode induction in E6 media, SIX1 positive cells, FGF addition; assay type: cell-based, human; settings: added to E6 culture comprising SB431542 and BMP
Method: as §1

[4] = tested on: Six1::H2B-GFP reporter line; experiment: LOPAC small molecule screen and validation for enhanced CP induction; settings: CP protocol after the addition of FGF2
Method: All differentiations starting from E8 were dissociated into single cells using EDTA and replated at high density in E8 with the ROCK inhibitor (Tocris). Cells were typically seeded at a density of 200,000 cells/cm^2 on Matrigel coated dishes. Switching from E8 to E6 triggered differentiations (i.e. d0). Neuroectoderm (NE) formation was generated by culturing the cells in E6 with 10 nM SB and 500 nM LDN until d12. Neural Crest (NC) was first treated with 10 nM SB, 600 nM CHIR and 1 ng/ml BMP4 from d0-d2. […] Lens placode was first treated with 10 nM SB and 5 ng/ml BMP4 from d0-d2. At d2, cells were maintained in 10 nM SB with 100 ng/ml FGF2 until d12. Trigeminal placode was first treated with 10 nM SB and 5 ng/ml BMP4 from d0-d2. At d2, CHIR was added to the SB and BMP4 until d4. Finally, non-neural ectoderm (NNE) was treated with 10 nM SB, 10 nM SU5402 and 20 ng/ml BMP4 until d12.

hPSC [5] = experiment: BMP dose response for TFAP2A, NNE and CP induction in E6 media; assay type: cell-based, human
Method: as §1

hPSC [6] = experiment: Neural crest induction, SOX10 positive cells; assay type: cell-based, human
Method: as §1

[7] = three-day pulse with SB431542, dose-response

Cc1c[nH]c(-c2cnc(NCCNc3ccc(C#N)cn3)nc2-c2ccc(Cl)cc2Cl)n1 [CHIR99021, 6-(2-(4-(2,4-dichlorophenyl)-5-(4-methyl-1H-imidazol-2-yl)pyrimidin-2-ylamino)ethylamino)nicotinonitrile]
cell killing during differentiation (hPSCs): effectively killed the cells | PAX3 expression in SIX1 placode cells (SIX1 placode cells): capable of triggering PAX3 expression | IC50 values against rodent GSK3β homologs (rodent GSK3β homologs): nanomolar

CNC1CCC(N(Cc2cccc(-c3ccncc3)c2)C(=O)c2sc3ccccc3c2Cl)CC1 (stereo not shown) [SAG]
induction of anterior pituitary genes / lineage markers [1]: robust induction of anterior pituitary-lineage markers | cell death ([1]; small-molecule-based induction replacing SHH): increase in cell death

NC(=O)c1ccc(-c2nc(-c3ccc4c(c3)OCO4)c(-c3ccccn3)[nH]2)cc1 [SB431542, 4-[4-(1,3-benzodioxol-5-yl)-5-(2-pyridinyl)-1H-imidazol-2-yl]-benzamide]
percentage of cells expressing PAX6 [2]: ~90%

Cc1c[nH]c(/C=C2\C(=O)Nc3ccccc32)c1CCC(=O)O [SU5402, 2-[(1,2-Dihydro-2-oxo-3H-indol-3-ylidene)methyl]-4-methyl-1H-pyrrole-3-pr-opanoic acid]
cell killing during differentiation (hPSCs): effectively killed the cells

c1ccc2c(Oc3nc(Nc4ccc(N5CCOCC5)cc4)c4ncn(C5CCCCC5)c4n3)cccc2c1 [purmorphamine]
cell death [1]: increase in cell death | induction of anterior pituitary genes / lineage markers [1]: robust induction of anterior pituitary-lineage markers

FGF2: activator of FGF signaling
SIX1 positive CP cells (hPSC [3]): ~50% | Six1 positive cells [4]: 34%

B1: BMP4: activator of BMP signaling (protein, UniProt P12644 293-408, looked up)
Bone morphogenetic protein 4: SPKHHSQRARKKNKNCRRHSLYVDFSDVGWNDWIVAPPGYQAFYCHGDCPFPLADHLNSTNHAIVQTLVNSVNSSIPKACCVPTELSAISMLYLDEYDKVVLKNYQEMVVEGCGCR
BMP4 concentration optimal for CP induction (hPSC [5]; [7]): around 5 ng/ml | SOX10 positive NC population generated (hPSC [6]; short pulse of BMP4 (1 ng/ml) with Wnt activation and SB431542): nearly homogenous SOX10 positive NC population | BMP4 concentration giving strong NC induction (hPSC [6]; [7]): around 1 ng/ml

B2: BMP: BMP signaling activator used in E6 media, BMP4 per methods (protein, UniProt P12644 293-408, looked up)
Bone morphogenetic protein 4: B1 Bone morphogenetic protein 4
marker phenotype at high BMP (NNE) (hPSC [5]; 20 ng/ml BMP): cells become TFAP2A positive and lack the expression of SOX10 and SIX1 | TFAP2A expression (hPSC [5]; within three days, with SB431542 in E6 media, dose dependent): rapidly upregulated
